Results reported in the supplement of paper PMC13380429.

How the values were obtained:
A549-ACE2 = assay: drug-induced phospholipidosis relative to tamoxifen; higher = more phospholipidosis
[1] = test system: A549-ACE2 infected with SARS-CoV-2; assay: SARS-CoV-2 infection rate relative to DMSO; higher = more infection; conditions: 24 h
Calu-3 [2] = assay: drug sensitivity score (DSS) for viability; higher = more toxic; extreme values may be limits of the assay; conditions: 72 h
Vero E6 [3] = assay: as above; conditions: 72 h
U2OS [4] = assay: as above; conditions: 72 h
Caco-2 [5] = assay: as above; conditions: 72 h
HepG2 [6] = assay: as above; conditions: 72 h
[7] = test system: A549-ACE2 infected with SARS-CoV-2; assay: cell count relative to DMSO; higher = less toxic; conditions: 24 h
Calu-3 [8] = assay: cell viability relative to DMSO; higher = less toxic; conditions: 72 h
Vero E6 [9] = assay: as above; conditions: 72 h
U2OS [10] = assay: as above; conditions: 72 h
Caco-2 [11] = assay: as above; conditions: 72 h
HepG2 [12] = assay: as above; conditions: 72 h
[13] = test system: A549-ACE2 infected with SARS-CoV-2; assay: morphology score (similarity to uninfected cells); higher = more like uninfected cells; conditions: 24 h
Calu-3 [14] = assay: relative viability EC50 (midpoint between 100% and the lowest measured viability); higher = less toxic; conditions: 72 h
Vero E6 [15] = assay: as above; conditions: 72 h
U2OS [16] = assay: as above; conditions: 72 h
Caco-2 [17] = assay: as above; conditions: 72 h
HepG2 [18] = assay: as above; conditions: 72 h

C[C@H]1[C@H](NC(=O)/C(=N\OC(C)(C)C(=O)O)c2csc(N)n2)C(=O)N1S(=O)(=O)O [aztreonam]
drug-induced phospholipidosis [%], A549-ACE2
Conditions | 0.3 µM | 0.833333 µM | 3.33333 µM | 6.66667 µM | 10 µM | 30 µM
24 h | 0.05 | -0.48 | -0.4 | 1.8 | 0.46 | 0.6
48 h | 4.27 | 0.47 | -0.36 | -0.48 | 2.78 | 5.88
72 h | 2.06 | -3.37 | -0.186 | -0.381 | 3.05 | 4.25

Conditions | SARS-CoV-2 infection rate, [1] [%] | cell count, [7] [%] | cell viability, Caco-2 [11] [%] | cell viability, Calu-3 [8] [%] | cell viability, HepG2 [12] [%] | cell viability, U2OS [10] [%] | cell viability, Vero E6 [9] [%] | morphology score, [13]
1 nM | – | – | 96.9 | 103 | 93 | 99.3 | 93 | –
10 nM | – | – | 91.7 | 99.8 | 108 | 93.9 | 95.2 | –
100 nM | – | – | 94.5 | 94.6 | 96.3 | 98.4 | 93.3 | –
0.3 µM | 105 | 102 | – | – | – | – | – | 0.12
1000 nM | – | – | 96.2 | 95.6 | 101 | 97.6 | 96.1 | –
3 µM | 109 | 97 | – | – | – | – | – | -0.22
10 µM | 98 | 99 | – | – | – | – | – | 0.07
10000 nM | – | – | 104 | 103 | 104 | 92.5 | 102 | –
30 µM | 93 | 107 | – | – | – | – | – | 0.28

Conditions | drug sensitivity score | relative viability EC50 [µM]
Caco-2 [5] | 0 | –
Caco-2 [17] | – | > 10
Calu-3 [2] | 0 | –
Calu-3 [14] | – | > 10
HepG2 [6] | 0 | –
HepG2 [18] | – | > 10
U2OS [4] | 0 | –
U2OS [16] | – | > 10
Vero E6 [3] | 0 | –
Vero E6 [15] | – | > 10

OC(CCN1CCCCC1)(c1ccccc1)C1CC2C=CC1C2 (centres undefined) [biperiden]
drug-induced phospholipidosis [%], A549-ACE2
Conditions | 0.3 µM | 0.833333 µM | 3.33333 µM | 6.66667 µM | 10 µM | 30 µM
24 h | 6.44 | 3.39 | 3.47 | 5.73 | 10.9 | 32.9
48 h | 5.46 | -0.33 | 0.38 | 9.63 | 13.4 | 30.6
72 h | 8.44 | 0.683 | 2.98 | 6.62 | 5.63 | 27.3

Conditions | SARS-CoV-2 infection rate, [1] [%] | cell count, [7] [%] | cell viability, Caco-2 [11] [%] | cell viability, Calu-3 [8] [%] | cell viability, HepG2 [12] [%] | cell viability, U2OS [10] [%] | cell viability, Vero E6 [9] [%] | morphology score, [13]
1 nM | – | – | 93.2 | 103 | 93.3 | 99.4 | 92.7 | –
10 nM | – | – | 96 | 108 | 108 | 101 | 95.8 | –
100 nM | – | – | 99 | 108 | 99.5 | 102 | 95.2 | –
0.3 µM | 106 | 100 | – | – | – | – | – | -0.01
1000 nM | – | – | 97.9 | 101 | 110 | 97 | 96.2 | –
3 µM | 76 | 107 | – | – | – | – | – | 0.49
10 µM | 55 | 112 | – | – | – | – | – | 0.74
10000 nM | – | – | 104 | 95.4 | 97.2 | 95.3 | 101 | –
30 µM | 44 | 113 | – | – | – | – | – | 0.76

Conditions | drug sensitivity score | relative viability EC50 [µM]
Caco-2 [5] | 0 | –
Caco-2 [17] | – | > 10
Calu-3 [2] | 0 | –
Calu-3 [14] | – | > 10
HepG2 [6] | 0 | –
HepG2 [18] | – | > 10
U2OS [4] | 0 | –
U2OS [16] | – | > 10
Vero E6 [3] | 0 | –
Vero E6 [15] | – | > 10

C=C[C@@]1(C)CC(=O)[C@]2(O)[C@@]3(C)[C@@H](O)CCC(C)(C)[C@@H]3[C@H](OC(=O)CCN(C)C)[C@H](OC(C)=O)[C@@]2(C)O1 [colforsin-daproate]
drug-induced phospholipidosis [%], A549-ACE2
Conditions | 0.3 µM | 0.833333 µM | 3.33333 µM | 6.66667 µM | 10 µM | 30 µM
24 h | -0.11 | -0.39 | -2.43 | 1 | 1.72 | 23.6
48 h | 0.82 | -1.25 | -1.96 | 0.45 | 2.53 | 34.6
72 h | 2.97 | -1.9 | -2.38 | -1.51 | 0.457 | –

Conditions | SARS-CoV-2 infection rate, [1] [%] | cell count, [7] [%] | cell viability, Caco-2 [11] [%] | cell viability, Calu-3 [8] [%] | cell viability, HepG2 [12] [%] | cell viability, U2OS [10] [%] | cell viability, Vero E6 [9] [%] | morphology score, [13]
1 nM | – | – | 101 | 103 | 93.9 | 105 | 98 | –
10 nM | – | – | 98.9 | 95.5 | 100 | 103 | 93.9 | –
0.1 µM | 88 | 99 | – | – | – | – | – | 0.33
100 nM | – | – | 109 | 99.2 | 94 | 102 | 96.5 | –
0.3 µM | 98 | 105 | – | – | – | – | – | 0.05
1 µM | 106 | 105 | – | – | – | – | – | -0.06
1000 nM | – | – | 94 | 106 | 100 | 101 | 90.5 | –
3 µM | 108 | 104 | – | – | – | – | – | -0.03
10000 nM | – | – | 89.1 | 98.9 | 95.3 | 97.3 | 77 | –

Conditions | drug sensitivity score | relative viability EC50 [µM]
Caco-2 [5] | 0.1 | –
Caco-2 [17] | – | > 10
Calu-3 [2] | 0 | –
Calu-3 [14] | – | > 10
HepG2 [6] | 0 | –
HepG2 [18] | – | > 10
U2OS [4] | 0 | –
U2OS [16] | – | > 10
Vero E6 [3] | 1.3 | –
Vero E6 [15] | – | > 10
